{
  "source": "patent US20230059898A1",
  "about": "(priority 2020, published 2023)",
  "note": "Counter-ions that a name gives are not always drawn. Note: key: +: not sensitive; −: sensitive.",
  "data": [
    {"test_system": "biocontrol strain ST15", "assay_type": "cell-based, Bacillus altitudinis", "values": [
      {"smiles": "N=C(N)N", "note": "[Guanidine hydrochloride]", "chemical sensitivity of strain ST15": "+"},
      {"smiles": "c1ccc(-c2nn(-c3ccccc3)[n+](-c3cccc4ccccc34)n2)cc1", "note": "[Tetrazolium violet]", "chemical sensitivity of strain ST15": "−"},
      {"smiles": "CC(=O)O[C@H]1C[C@@]2(C)[C@@H](C[C@@H](O)[C@H]3[C@@]4(C)CC[C@@H](O)[C@@H](C)[C@@H]4CC[C@@]32C)/C1=C(\\CCC=C(C)C)C(=O)O", "note": "[Fusidic acid]", "chemical sensitivity of strain ST15": "−"},
      {"smiles": "CCn1cc(C(=O)O)c(=O)c2ccc(C)nc21", "note": "[Nalidixic acid]", "chemical sensitivity of strain ST15": "+"},
      {"smiles": "N[C@H](CO)C(=O)O", "note": "[D-serine]", "chemical sensitivity of strain ST15": "−"},
      {"smiles": "CN[C@H](CC(C)C)C(=O)N[C@H]1C(=O)N[C@@H](CC(N)=O)C(=O)N[C@H]2C(=O)N[C@H]3C(=O)N[C@H](C(=O)N[C@H](C(=O)O)c4cc(O)cc(O)c4-c4cc3ccc4O)[C@H](O)c3ccc(c(Cl)c3)Oc3cc2cc(c3O[C@@H]2O[C@H](CO)[C@@H](O)[C@H](O)[C@H]2O[C@H]2C[C@](C)(N)[C@H](O)[C@H](C)O2)Oc2ccc(cc2Cl)[C@H]1O", "note": "[Vancomycin]", "chemical sensitivity of strain ST15": "−"},
      {"smiles": "CCCCCCCCCCCCCCOS(=O)(=O)[O-].[Na+]", "note": "[Sodium tetradecyl sulfate]", "chemical sensitivity of strain ST15": "−"},
      {"smiles": "CC(O)C(=O)[O-].[Na+]", "note": "(centres unmarked) [1% sodium lactate, sodium lactate]", "chemical sensitivity of strain ST15": "+"},
      {"smiles": "CO[C@H]1C[C@H](O[C@H]2[C@H](C)[C@@H](O[C@@H]3O[C@H](C)C[C@H](N(C)C)[C@H]3OC(C)=O)[C@@H](C)C[C@@]3(CO3)C(=O)[C@H](C)[C@@H](OC(C)=O)[C@@H](C)[C@@H](C)OC(=O)[C@@H]2C)O[C@@H](C)[C@@H]1OC(C)=O", "note": "[Troleandomycin]", "chemical sensitivity of strain ST15": "−"},
      {"smiles": "[Cl-].[Li+]", "note": "[Lithium chloride]", "chemical sensitivity of strain ST15": "+"},
      {"smiles": "CO[C@H]1/C=C/O[C@@]2(C)Oc3c(C)c([O-])c4c(O)c(cc(O)c4c3C2=O)NC(=O)/C(C)=C\\C=C\\[C@H](C)[C@H](O)[C@@H](C)[C@@H](O)[C@@H](C)[C@H](OC(C)=O)[C@@H]1C.[Na+]", "note": "[Rifamycin SV]", "chemical sensitivity of strain ST15": "−"},
      {"smiles": "O=[Te]([O-])[O-].[K+].[K+]", "note": "[Dipotassium trioxotellurate]", "chemical sensitivity of strain ST15": "+"},
      {"smiles": "COc1cc(-c2ccc(-n3nc(-c4ccccc4)n[n+]3-c3ccccc3)c(OC)c2)ccc1-n1nc(-c2ccccc2)n[n+]1-c1ccccc1.[Cl-].[Cl-]", "note": "[Tetrazolium blue]", "chemical sensitivity of strain ST15": "−"},
      {"smiles": "C[C@H]1[C@H](NC(=O)/C(=N\\OC(C)(C)C(=O)O)c2csc(N)n2)C(=O)N1S(=O)(=O)O", "note": "[Aztreonam]", "chemical sensitivity of strain ST15": "+"},
      {"smiles": "CCCC(=O)[O-].[Na+]", "note": "[Sodium butyrate]", "chemical sensitivity of strain ST15": "+"},
      {"smiles": "[Cl-].[Na+]", "note": "[1% NaCl, NaCl]", "chemical sensitivity of strain ST15": "+"},
      {"smiles": "CCC[C@@H]1C[C@@H](C(=O)N[C@@H]([C@H]2O[C@H](SC)[C@H](O)[C@@H](O)[C@H]2O)[C@@H](C)O)N(C)C1", "note": "[Lincomycin]", "chemical sensitivity of strain ST15": "+"}
    ]}
  ]
}
